# Laboratory results reported in US9694073B2, “Small molecule inhibitors of polynucleotide kinase/phosphatase, poly(ADP-ribose) polymerase and uses thereof” (THE GOVERNORS OF THE UNIVERSITY OF ALBERTA, priority 2009, dated 2017).
# “Also recorded” adds a separate entry of the source. Starred links: 1 amine or outer side, 2 acyl side, 3 side chain; linkers in the order of their positions; H or OH if unused. Positions of bridges follow the written chain, without caps; N, C: chain ends. Non-standard residues stand in square brackets, D forms with d. Residues, ends and D or L forms follow the SMILES beside them. Adda = CO[C@@H](Cc1ccccc1)[C@@H](C)/C=C(C)/C=C/[C@H](N[*:1])[C@H](C)C(=O)[*:2]; dAsp(3S-Me) = C[C@H](C(=O)[*:3])[C@@H](N[*:1])C(=O)[*:2]; d(γGlu) = O=C(O)[C@@H](CCC(=O)[*:2])N[*:1]; NMeDha = C=C(NC)C(=O)O
# Assays:
# [1] = biological target: T1, human PNKP (hPNKP) 3'-phosphatase activity (Homo sapiens, UniProt Q96T60); experiment: Fluorescence quenching-based screening assay for PNKP 3'-phosphatase activity; type: biochemical; conditions: 100 μM compound, 50 ng hPNKP
# T1 construct: made in house; host or cells: bacteria (said only for the batch compared with aprataxin)
# Procedure: The […] assay developed originally for protein kinases by QTL Biosystems (Santa Fe, N. Mex.) was modified. […] The TAMRA-labelled oligonucleotide lacking a 3'-phosphate served as a control. […] The assay was performed in 384-well white Optiplate microplates (PerkinElmer, Woodbridge, ON) in 70 mM Tris-HCl, pH 7.4, 60 mM MgCl2, 5 mM MnCl2, 0.3% BSA, 0.09% sodium azide. Reaction buffer was prepared by adding 1 mM DTT immediately prior to use. Five μL of 3'-phosphatase substrate (final concentration 0.5 μM) was used per well. In duplicate, 10 μl of each concentration of hPNKP was added per well. Plates were incubated for 1 hour at 37° C. and then 15 μl of 1× sensor solution (provided by QTL) was added to each well and incubated for 30 minutes at room temperature. Fluorescence (485 nm excitation and 520 nm emission wavelengths) of each well was read in a FLUOstar Optima® (BMG Labtech Inc, Durham, N.C.). Data were analyzed using GraphPad Prism® Software (San Diego, Calif.). […] Small molecules were provided in powder form and were dissolved in 100% DMSO and a final concentration of 100 μM was added to each well and assays were performed as described above. After obtaining an optimum calibration curve and enzyme concentration curve, a simplified form of the assay to test the library in a short time, was employed. One concentration of hPNKP, 50 ng, was tested and compared with the control well with no enzyme. The assay was conducted in the same way as described above with respect to oligonucleotides, buffer, controls, incubation lengths/temperatures, centrifugations and sensor addition. The fluorescence-based phosphatase assay adapted was originally developed to monitor protein phosphatase activity (34). This assay involves a fluorescent sensor molecule coated in trivalent metal cations which causes superquenching of the sensor signal when in close proximity to a dye (TAMRA) on the substrate. The sensor is brought close to TAMRA via the ionic bond formed between the terminal DNA phosphate and the trivalent metal cations on the sensor. Removal of the phosphate leads to an elevation of fluorescence because the sensor is not brought close enough to TAMRA for its signal to be quenched. […] Heat inactivated hPNKP was used as a control.
# [2] = biological target: T2, hPNKP 3'-phosphatase activity (Homo sapiens, UniProt Q96T60); experiment: Conventional radio-gel assay for hPNKP 3'-phosphatase activity; type: biochemical
# T2 construct: made in house; host or cells: bacteria (said only for the batch compared with aprataxin)
# PP-1cγ = biological target: T3, PP-1cγ (Homo sapiens, UniProt P36873); experiment: PP-1cγ pNPP phosphatase assay; type: biochemical
# T3 construct: made in house; host or cells: E. coli
# T3 sequence (P36873 whole entry): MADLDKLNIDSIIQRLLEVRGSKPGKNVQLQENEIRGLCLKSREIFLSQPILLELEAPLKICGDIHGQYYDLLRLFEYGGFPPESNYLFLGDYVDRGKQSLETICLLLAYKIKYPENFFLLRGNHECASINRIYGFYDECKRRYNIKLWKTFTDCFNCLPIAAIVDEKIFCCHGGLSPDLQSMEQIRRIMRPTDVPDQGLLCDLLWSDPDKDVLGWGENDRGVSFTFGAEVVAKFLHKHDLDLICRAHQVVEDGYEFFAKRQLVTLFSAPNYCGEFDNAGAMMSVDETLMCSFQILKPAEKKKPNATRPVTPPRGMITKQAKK
# Procedure: PP-1cγ and calcineurin activity was analyzed, using a colorimetric p-nitrophenol phosphate (pNPP) assay as previously described (33). The reaction were carried out in a 96-well microplate with a final volume of 60 μl containing 40 μl of pNPP assay buffer (50 mM Tris, pH 7.4, 0.1 mM EDTA, 30 mM MgCl2, 0.5 mM MnCl2, 1 mg/ml BSA, 0.2% β-mercaptoethanol), 0.03 μg PP-1cγ (specific activity>30 units per mg) or a catalytically equivalent quantity of calcineurin and 10 μl of 0.5 mM DNA 3′-phosphatase inhibitor sample in DMSO or 10 μl of 50 μM A12B4C3 sample in DMSO, or control solvent. After a 10-minute incubation at 37° C., 10 μl of 30 mM pNPP was added to each well and incubated for an additional of 60 minutes and 45 minutes for PP-1cγ and calcineurin, respectively.
# [3] = system: A549-VO vector only control cells
# [4] = system: M059J cells (DNA-PKcs negative); type: cell-based, human
SMILES,inhibition of hPNKP phosphatase activity (substrate dephosphorylation) in the screening assay [1],"inhibition of hPNKP phosphatase activity, radio-gel assay [2]",reduction of the activity of PP1 (PP-1cγ) [%],cell survival of control cells (A549-VO) [3],cell survival of M059J cells [4]
"O=C1C2C=CC(C(O)c3ccccc3)N(Nc3ccc([N+](=O)[O-])cc3)C2C(=O)N1c1ccccc1 (stereo not drawn) [Compound A1B4C3, 2-(hydroxy(phenyl)methyl)-1-(4-nitrophenylamino)-6-phenyl-6,7a-dihydro-1H-pyrrolo[3,4-b]pyridine-5,7(2H,4aH)-dione]",significant inhibition; also recorded: marked inhibition,inhibited,–,–,–
"CN1C(=O)C2C=CC(C(O)C(c3ccccc3)c3ccccc3)N(NC(=O)OC(C)(C)C)C2C1=O (stereo not drawn) [Compound A26B11C2, tert-butyl 2-(1-hydroxy-2,2-diphenylethyl)-6-methyl-5,7-dioxo-2,4a,5,6,7,7a-hexahydro-1H-pyrrolo[3,4-b]pyridin-1-ylcarbamate]",significant inhibition; also recorded: marked inhibition,inhibited,–,–,–
"C=C1C(=O)N[C@H](C)C(=O)N[C@@H](CC(C)C)C(=O)N[C@@H](C(=O)O)[C@H](C)C(=O)N[C@@H](CCCNC(=N)N)C(=O)N[C@@H](/C=C/C(C)=C/[C@H](C)[C@H](Cc2ccccc2)OC)[C@H](C)C(=O)N[C@@H](C(=O)O)CCC(=O)N1C [microcystin LR, reference compound] (R[Adda][d(γGlu)][NMeDha][dA]L[dAsp(3S-Me)]-OH; lactam N-7)",–,–,~65,–,–
"CN1C(=O)C2C=CC(C(O)c3cccs3)N(Nc3ccccc3)C2C1=O (stereo not drawn) [Compound A39B1C2, 2-(hydroxy(thiophen-2-yl)methyl)-6-methyl-1-(phenylamino)-6,7a-dihydro-1H-pyrrolo[3,4-b]pyridine-5,7(2H,4aH)-dione]",significant inhibition; also recorded: marked inhibition,inhibited,–,–,–
"O=C1NCCc2c(OCCCCN3CCCCC3)cccc21 [DPQ, 3,4-dihydro-5[4-(1-piperindinyl)butoxy]-1(2H)-isoquinoline]",–,–,–,no such relationship,reduced survival
